The values below come from ChEMBL document CHEMBL1126235, “Benzothiadiazine dioxides: A new class of potent angiotensin-II (AT1) receptor antagonists” (Bioorg Med Chem Lett, 1992).

Broadly, the Ki is a measure of affinity in units of concentration, obtained from inhibition or displacement. For orientation: Kb means the equilibrium dissociation constant of an antagonist, usually derived from a functional assay. Read a high Kb as a less potent antagonist.

For test [1], the target named is T1, Angiotensin II receptor (AT-1) type-1 (Rattus norvegicus, UniProt P29089+P25095).
T1 sequence (P29089 whole entry): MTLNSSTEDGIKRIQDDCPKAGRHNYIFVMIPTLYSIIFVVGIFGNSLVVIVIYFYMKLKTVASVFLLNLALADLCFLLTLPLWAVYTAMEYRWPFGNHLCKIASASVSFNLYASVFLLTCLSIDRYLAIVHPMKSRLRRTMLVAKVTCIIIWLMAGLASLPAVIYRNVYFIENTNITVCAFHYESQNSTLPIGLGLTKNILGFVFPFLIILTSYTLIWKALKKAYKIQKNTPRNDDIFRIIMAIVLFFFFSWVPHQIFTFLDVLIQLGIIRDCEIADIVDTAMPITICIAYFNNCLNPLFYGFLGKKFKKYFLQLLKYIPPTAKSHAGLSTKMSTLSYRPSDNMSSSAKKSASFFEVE
T1 sequence (P25095 whole entry): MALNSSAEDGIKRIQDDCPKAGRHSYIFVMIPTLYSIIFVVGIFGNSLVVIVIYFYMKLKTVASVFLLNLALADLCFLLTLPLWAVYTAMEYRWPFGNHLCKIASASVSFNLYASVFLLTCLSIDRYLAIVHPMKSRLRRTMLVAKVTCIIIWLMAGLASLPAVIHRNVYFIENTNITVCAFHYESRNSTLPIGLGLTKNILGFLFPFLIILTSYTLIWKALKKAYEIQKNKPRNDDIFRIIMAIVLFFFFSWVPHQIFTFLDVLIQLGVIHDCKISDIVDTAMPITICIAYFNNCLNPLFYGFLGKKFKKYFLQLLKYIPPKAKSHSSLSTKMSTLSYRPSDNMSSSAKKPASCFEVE
The experiment in a line: Binding against Angiotensin II receptor in a radioligand binding assay using [125I]-Sar1-Ile8 angiotensin-II as radioligand in rat adrenal cortical membranes. It counts as cell membranes.

The species entered for another test is Oryctolagus cuniculus. Kind of test: Compound was tested for functional antagonism of angiotensin-II induced contraction in isolated rabbit aorta.

For the compound `CCSC1=NS(=O)(=O)c2cc(C)cnc2N1Cc1ccc(-c2ccccc2-c2nn[nH]n2)cc1`, the Ki in test [1] turned out to be 0.8 nM. For the same compound, in the test filed under Oryctolagus cuniculus, the Kb was determined as 0.6 nM. On the same counts, the results for `CCCSC1=NS(=O)(=O)c2cc(C)cnc2N1Cc1ccc(-c2ccccc2-c2nn[nH]n2)cc1` are 0.6 nM and 11 nM.

Consider `CCCSC1=Nc2ccccc2S(=O)(=O)N1Cc1ccc(-c2ccccc2-c2nn[nH]n2)cc1`, for which, in test [1], the Ki is reported as 57 nM. Moreover, the Kb in the test listed under Oryctolagus cuniculus is 640 nM. The matching figures for `CCCCC1=NS(=O)(=O)c2ccccc2N1Cc1ccc(-c2ccccc2C(=O)O)cc1`: 550 nM and 130 nM.

With `CCCCC1=Nc2ccccc2S(=O)(=O)N1Cc1ccc(-c2ccccc2C(=O)O)cc1`, the Ki in test [1] came out at 230 nM. The compound also had a Kb in the test filed under Oryctolagus cuniculus of 160 nM. The matching figures for `CCCSC1=NS(=O)(=O)c2ccc(C(=O)O)cc2N1Cc1ccc(-c2ccccc2-c2nn[nH]n2)cc1`: 8.5 nM and 0.08 nM.

As for `CCCSC1=NS(=O)(=O)c2ccccc2N1Cc1ccc(-c2ccccc2C(=O)O)cc1`, the Ki in test [1] was 180 nM. Also, the antagonist equilibrium constant (Kb) in the test filed under Oryctolagus cuniculus was found to be 20 nM. In the case of `CCCSC1=Nc2ccccc2S(=O)(=O)N1Cc1ccc(-c2ccccc2C(=O)O)cc1`, the Ki in test [1] is reported as 4900 nM. In the test listed under Oryctolagus cuniculus, this compound returned an antagonist equilibrium constant (Kb) of 1200 nM. In turn, `CCCSC1=NS(=O)(=O)c2ccccc2N1Cc1ccc(-c2ccccc2-c2nn[nH]n2)cc1` showed an inhibitory constant (Ki) in test [1] of 4.8 nM. For the same compound, the Kb in the test listed under Oryctolagus cuniculus is 93 nM.

In the case of `CCCCc1nc(Cl)c(CO)n1Cc1ccc(-c2ccccc2-c2nnn[nH]2)cc1` [LOSARTAN], the antagonist dissociation constant (Kb) in the test filed under Oryctolagus cuniculus amounted to 2.6 nM.
